The source made the active and inactive calls. No cut-off for these calls is given here.
Biological target: T1, Dihydroorotate dehydrogenase (quinone), mitochondrial (Homo sapiens, UniProt Q02127)
Experiment: Inhibition of DHODH in human HEK-293 cells transfected with ISRE-luciferase reporter gene assessed as increase in IFN-alpha mediated cellular response at 6 to 178 uM after 24 hrs by luciferase reporter gene assay
Format: cell-based
Details: HEK293, dose 6-178 µM

T1 sequence (Q02127 whole entry): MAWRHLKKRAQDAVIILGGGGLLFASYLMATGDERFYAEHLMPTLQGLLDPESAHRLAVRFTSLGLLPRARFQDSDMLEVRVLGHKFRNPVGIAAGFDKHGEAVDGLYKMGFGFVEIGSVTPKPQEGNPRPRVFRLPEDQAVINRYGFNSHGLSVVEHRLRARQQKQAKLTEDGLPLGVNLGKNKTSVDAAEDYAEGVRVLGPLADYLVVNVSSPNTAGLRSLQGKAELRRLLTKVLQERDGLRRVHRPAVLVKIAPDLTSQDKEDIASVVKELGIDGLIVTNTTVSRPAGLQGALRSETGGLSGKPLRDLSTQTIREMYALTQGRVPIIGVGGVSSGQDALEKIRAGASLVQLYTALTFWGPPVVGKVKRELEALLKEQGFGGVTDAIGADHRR

Row | SMILES | Activity
1 | CC1(c2ccccc2)OC(=O)c2c1ccn(C1CC1)c2=O (stereo not given) | Active

Biological target: T1, Dihydroorotate dehydrogenase (quinone), mitochondrial
Experiment: Inhibition of DHODH in human HEK-293 cells transfected with ISRE-luciferase reporter gene assessed as increase in IFN-alpha mediated cellular response after 24 hrs by luciferase reporter gene assay
Details: read-out: EC50

Row | SMILES | EC50
2 | CC1(c2ccccc2)OC(=O)c2c1ccn(C1CC1)c2=O (stereo not given) | 27 µM

Same assay, conditions: read-out: pEC50 (converted)

Row | SMILES | EC50
3 | Cn1ccc2c(c1=O)C(=O)OC21CCCCC1 | > 158 µM
4 | O=C1OC2(CCCCC2)c2ccn(C3CCC3)c(=O)c21 | > 158 µM
5 | O=C1OC2(CCCC2)c2ccn(C3CC3)c(=O)c21 | 52.5 µM
6 | O=C1OC2(CCCCC2)c2ccn(C3CCCCC3)c(=O)c21 | > 158 µM
7 | CC(C)n1ccc2c(c1=O)C(=O)OC21CCCCC1 | > 158 µM
8 | O=C1OC2(CCCCC2)c2ccnc(O)c21 | > 158 µM
9 | CC1=C(C(=O)NC2CC2)C(=O)OC12CCCCC2 | > 158 µM
10 | CC1(C)OC(=O)c2c1ccnc2O | > 158 µM
11 | CC1(C)OC(=O)c2c1ccn(C1CC1)c2=O | > 158 µM
12 | CCC1(C)OC(=O)c2c1ccn(C1CC1)c2=O (stereo not given) | > 158 µM
13 | CCC1(CC)OC(=O)c2c1ccn(C1CC1)c2=O | > 158 µM
14 | O=C1OC2(CCCCC2)c2ccn(CC3CC3)c(=O)c21 | > 158 µM
15 | O=C1OC2(CCCCC2)c2ccn(C3CCCC3)c(=O)c21 | > 158 µM

Reference: ChEMBL document CHEMBL4680118, “Cerpegin-derived furo[3,4-c]pyridine-3,4(1H,5H)-diones enhance cellular response to interferons by de novo pyrimidine biosynthesis inhibition” (Eur J Med Chem, 2020)
